Results from patent publication US20240100065A1, “METHODS FOR TREATING RECEPTOR-INTERACTING PROTEIN KINASE 1-MEDIATED DISEASES” (Genzyme Corporation, priority 2022, published 2024).
Read-outs that look alike come from different tables or passages of the source.

Assay: Plasma pharmacokinetics after single and repeated oral doses
Format: in vivo, healthy adult participants (human)
Details: for Time to steady state (Tss), 50% median, point estimate / Time to steady state (Tss), 90% quantile, point estimate: overall; for AUC / AUC(0-t) / Cmax / Tmax / Vd/F: human, plasma, oral; for Vd/F: read-out: Vz/F, mean
Protocol: In Part 1a, plasma samples were collected before dosing and at 10 post-dose timepoints on Day 1 (30 minutes, 1 hour, followed by every hour until 6 hours, and then every 2 hours until 12 hours), and single samples on Day 2 (at 24 hours) and Day 3 (at 48 hours). In Part 1b, timepoints included at least pre-dose and at 10 post-dose timepoints, including plasma sampling at the same time of CSF sampling. In Part 2, on Day 1 and Day 14, plasma samples were collected at pre-dose and at 10 to 11 post-dose timepoints. In addition, plasma samples were collected on Days 2, 3, 5, 7, 11, 15, 16, and 17.
PK population included all participants exposed to Compound 1 with no major or critical deviations related to Compound 1 and for whom PK data were considered sufficient and interpretable. PK parameters were summarized by descriptive statistics for each dose level group. Distribution of Tmax values was represented by histogram plots for each dose level group. In Part 1a, dose proportionality was assessed using a linear model on Cmax, AUClast and AUC. In Part 2, all PK analyses were performed separately for each regimen (OD and BID). Steady state was assessed on Ctrough using a non-linear model. Accumulation was assessed using a linear model on log-transformed accumulation ratio. Dose proportionality was assessed using a power model on Cmax and AUCtau on Day 1 and Day 14, separately. Variance components of log-transformed Cmax and AUCtau were estimated using a linear model. In Part 1b, CSF concentration was described by dose level group and CSF to plasma unbound concentration ratios calculated were described in the same way. 4β-hydroxycholesterol on Day 14 versus Day 1 pre-dose concentration ratios were summarized using descriptive statistics by dose level group and point estimates with 90% confidence interval (90% CI) for the geometric mean of the log-transformed Day14/Day1 ratio was calculated in Part 2.

[1] = Part 2, cohorts at 10 and 20 mg QD
[2] = Part 2, cohorts at 15 and 20 mg BID
[3] = Part 2 Day 1, 10 mg QD, tau 24 hours
[4] = Part 2 Day 1, 15 mg BID, fasted
[5] = Part 2 Day 1, 20 mg BID, fasted
[6] = Part 2 Day 1, 20 mg BID, tau 12 hours
[7] = Part 2 Day 14 steady state, 10 mg QD
[8] = Part 2 Day 14 steady state, 15 mg BID
[9] = Part 2 Day 14 steady state, 20 mg BID
[10] = Part 2 Day 14 steady state, 20 mg QD
[11] = Part 2 Day 14 steady state, 20 mg QD, tau 24 hours

CC(C)(C(=O)N1CCOc2c(C#N)cncc2C1)C(F)F [Compound 1, 4-(3,3-difluoro-2,2-dimethyl-propanoyl)-3,5-dihydro-2H-pyrido[3,4-f] [1,4]oxazepine-9-carbonitrile]
Time to steady state (Tss), 50% median, point estimate [1]: 1.81 days | Time to steady state (Tss), 90% quantile, point estimate [1]: 2.45 days | Time to steady state (Tss), 50% median, point estimate [2]: 1.43 days | Time to steady state (Tss), 90% quantile, point estimate [2]: 1.65 days | Cmax, Gmean (Part 2 Day 1, 10 mg QD, fasted): (157) [20.7] ng/mL | Tmax, median (Part 2 Day 1, 10 mg QD, fasted): 1.00 h | AUCtau, Gmean [3]: (1080) h*ng/ml | AUCtau, mean ± SD [3]: 1.11 ± 0.268 µg·h/mL | Cmax, Gmean [4]: (211) [44.2] ng/mL | Tmax, median [4]: 1.00 h | AUCtau, Gmean (Part 2 Day 1, 15 mg BID, tau 12 hours): (1100) [33.1] h*ng/ml | Cmax, Gmean [5]: (205) [20.3] ng/mL | Cmax, mean ± SD [5]: 0.209 ± 0.0424 µg/mL | Tmax, median [5]: 2.00 h | AUCtau, Gmean [6]: (1350) h*ng/ml | AUCtau, mean ± SD [6]: 1.37 ± 0.252 µg·h/mL | Cmax, Gmean (Part 2 Day 1, 20 mg QD, fasted): (240) [20.2] ng/mL | Tmax, median (Part 2 Day 1, 20 mg QD, fasted): 1.50 h | AUCtau, Gmean (Part 2 Day 1, 20 mg QD, tau 24 hours): (1860) [22.5 h*ng/ml | CLSS/F, Gmean (Part 2 Day 14, 10 mg QD): (7.08) [25.9] L/h | CLSS/F, mean ± SD (Part 2 Day 14, 10 mg QD): 7.30 ± 1.89 L/h | Ctrough, Gmean (Part 2 Day 14, 10 mg QD): (19.9) [57.0] ng/mL | Ctrough, mean ± SD (Part 2 Day 14, 10 mg QD): 0.0228 ± 0.013 µg/mL | T1/2z, Gmean (Part 2 Day 14, 10 mg QD): (8.87) [23.2] h | T1/2z, mean ± SD (Part 2 Day 14, 10 mg QD): 9.07 ± 2.11 h | CLSS/F, Gmean (Part 2 Day 14, 15 mg BID): (9.16) [30.0] L/h | CLSS/F, mean ± SD (Part 2 Day 14, 15 mg BID): 9.54 ± 2.86 L/h | Ctrough, Gmean (Part 2 Day 14, 15 mg BID): (79.3) [33.0] ng/mL | Ctrough, mean ± SD (Part 2 Day 14, 15 mg BID): 0.0837 ± 0.0274 µg/mL | T1/2z, Gmean (Part 2 Day 14, 15 mg BID): (7.21) [15.6] h | T1/2z, mean ± SD (Part 2 Day 14, 15 mg BID): 7.29 ± 1.14 h | CLSS/F, Gmean (Part 2 Day 14, 20 mg BID): (9.27) [24.9] L/h | CLSS/F, mean ± SD (Part 2 Day 14, 20 mg BID): 9.53 ± 2.37 L/h | Ctrough, Gmean (Part 2 Day 14, 20 mg BID): (99.3) [40.0] ng/mL | Ctrough, mean ± SD (Part 2 Day 14, 20 mg BID): 0.107 ± 0.0427 µg/mL | T1/2z, Gmean (Part 2 Day 14, 20 mg BID): (7.37) [23.0] h | T1/2z, mean ± SD (Part 2 Day 14, 20 mg BID): 7.54 ± 1.74 h | CLSS/F, Gmean (Part 2 Day 14, 20 mg QD): (9.40) [22.2] L/h | CLSS/F, mean ± SD (Part 2 Day 14, 20 mg QD): 9.60 ± 2.14 L/h | Ctrough, Gmean (Part 2 Day 14, 20 mg QD): (30.4) [49.0] ng/mL | Ctrough, mean ± SD (Part 2 Day 14, 20 mg QD): 0.0342 ± 0.0166 µg/mL | T1/2z, Gmean (Part 2 Day 14, 20 mg QD): (8.53) [19.0] h | T1/2z, mean ± SD (Part 2 Day 14, 20 mg QD): 8.68 ± 1.65 h | Cmax, Gmean [7]: (158) [31.9] ng/mL | Tmax, median [7]: 1.00 h | AUCtau, Gmean (Part 2 Day 14 steady state, 10 mg QD, tau 24 hours): (1410) [27.4] h*ng/mL | Cmax, Gmean [8]: (268) [36.3] ng/mL | Tmax, median [8]: 1.00 h | AUCtau, Gmean (Part 2 Day 14 steady state, 15 mg BID, tau 12 hours): (1640) [32.5] h*ng/mL | Cmax, Gmean [9]: (353) [19.9] ng/mL | Tmax, median [9]: 1.00 h | AUCtau, Gmean (Part 2 Day 14 steady state, 20 mg BID, tau 12 hours): (2160) [25.9] h*ng/mL | Cmax, Gmean [10]: (250) [22.7] ng/mL | Tmax, median [10]: 2.00 h | AUCtau, Gmean [11]: (2130) [21.4] h*ng/mL | AUCtau, mean ± SD [11]: 2.17 ± 0.465 µg·h/mL | Accumulation ratio (AUC0-24h), Day 14/Day 1 (Pooled doses QD): ~1.22 | Within-subject variability for AUCtau (QD cohorts): 8.0% | Within-subject variability for Cmax (QD cohorts): 15.8% | Total variability for AUCtau (QD dosing regimen): 21.6% | Total variability for Cmax (QD dosing regimen): 20.6% | AUC (10 mg, Part 1a single 10 mg fasted, read-out: AUC, mean): 1.25 µg·h/mL | AUC(0-t) (10 mg, Part 1a single 10 mg fasted, read-out: AUClast, mean): 1.2 µg·h/mL | Cmax (10 mg, Part 1a single 10 mg fasted, read-out: Cmax, mean): 0.119 µg/mL | AUC (10 mg, Part 1b single 10 mg fed, read-out: AUC, mean): 1.46 µg·h/mL | AUC(0-t) (10 mg, Part 1b single 10 mg fed, read-out: AUClast, mean): 1.22 µg·h/mL | Cmax (10 mg, Part 2 Day 1, 10 mg QD, fasted, read-out: Cmax, mean ± SD): 0.161 ± 0.0332 µg/mL | AUC (10 mg, Part 2 Day 14 steady state, 10 mg QD, tau 24 hours, read-out: AUCtau, mean ± SD): 1.46 ± 0.399 µg·h/mL | Cmax (10 mg, Part 2 Day 14 steady state, 10 mg QD, read-out: Cmax, mean ± SD): 0.164 ± 0.0523 µg/mL | Cmax (15 mg, Part 2 Day 1, 15 mg BID, fasted, read-out: Cmax, mean ± SD): 0.229 ± 0.101 µg/mL | AUC (15 mg, Part 2 Day 1, 15 mg BID, tau 12 hours, read-out: AUCtau, mean ± SD): 1.15 ± 0.38 µg·h/mL | AUC (15 mg, Part 2 Day 14 steady state, 15 mg BID, tau 12 hours, read-out: AUCtau, mean ± SD): 1.71 µg·h/mL | Cmax (15 mg, Part 2 Day 14 steady state, 15 mg BID, read-out: Cmax, mean ± SD): 0.284 µg/mL | AUC(0-t) (20 mg, 20 mg BID, read-out: AUC0-24 h (corresponding to AUC0-12 h*2)): 15 µM·h | Cmax (20 mg, 20 mg BID, read-out: Mean observed Cmax): 1.22 µM | AUC(0-t) (20 mg, 20 mg QD, MAD study, read-out: Mean observed AUC0-24 at steady state): 7.35 µM·h | Cmax (20 mg, Part 1a single 20 mg fasted, read-out: Cmax, mean): 0.245 µg/mL | Cmax (20 mg, Part 2 Day 1, 20 mg QD, fasted, read-out: Cmax, mean ± SD): 0.245 ± 0.0495 µg/mL | AUC (20 mg, Part 2 Day 1, 20 mg QD, tau 24 hours, read-out: AUCtau, mean ± SD): 1.91 ± 0.429 µg·h/mL | AUC (20 mg, Part 2 Day 14 steady state, 20 mg BID, tau 12 hours, read-out: AUCtau, mean ± SD): 2.22 ± 0.574 µg·h/mL | Cmax (20 mg, Part 2 Day 14 steady state, 20 mg BID, read-out: Cmax, mean ± SD): 0.359 ± 0.0716 µg/mL | Cmax (20 mg, Part 2 Day 14 steady state, 20 mg QD, read-out: Cmax, mean ± SD): 0.255 ± 0.058 µg/mL | AUC (30 mg, Part 1a single 30 mg fasted, read-out: AUC, mean): 2.57 µg·h/mL | AUC(0-t) (30 mg, Part 1a single 30 mg fasted, read-out: AUClast, mean): 2.54 µg·h/mL | Cmax (30 mg, Part 1a single 30 mg fasted, read-out: Cmax, mean): 0.439 µg/mL | AUC (40 mg, Part 1a single 40 mg fasted, read-out: AUC, mean): 5.46 µg·h/mL | AUC(0-t) (40 mg, Part 1a single 40 mg fasted, read-out: AUClast, mean): 5.39 µg·h/mL | Cmax (40 mg, Part 1a single 40 mg fasted, read-out: Cmax, mean): 0.576 µg/mL | AUC (40 mg, Part 1b single 40 mg fed, read-out: AUC, mean): 5.06 µg·h/mL | AUC(0-t) (40 mg, Part 1b single 40 mg fed, read-out: AUClast, mean): 4.1 µg·h/mL | Cmax (40 mg, Part 1b single 40 mg fed, read-out: Cmax, mean): 0.381 µg/mL | Tmax (Part 1a, single 10 to 40 mg, fasted, read-out: Median tmax across doses): 1 to 1.5 h | Tmax (Part 2, single or repeated administration, fasted, read-out: Median Tmax across dose levels): 1 to 2 h | Vd/F (Part 1a single 40 mg fasted): 71.7 L | Vd/F (Part 1b single 10 mg fed): 86 L
